Test results as given in US9682082B2, “Combinations of AKT and MEK inhibitor compounds, and methods of use” (GENENTECH, INC., priority 2011, dated 2017).

Assays:
[1] = system: A2058 (PTEN null/Braf mutant) melanoma model; assay: A2058 melanoma xenograft model, tumor growth inhibition; type: in vivo
Method: Methods of measuring TGI are known in the art. In one example method, average tumor volumes are determined and compared from the patient before and after treatment. Tumor volumes can be measured in two dimensions (length and width) using any method in the art, for example UltraCal IV calipers (Fred V. Fowler Company) or by PET (positron emission tomography), or by some other method. The formula tumor volume (mm^3)=(length×width^2)×0.5 can be used. Measuring tumor volumes over multiple time periods can be done using a mixed-modeling Linear Mixed Effects (LME) approach (Pinheiro et al. 2009). This approach can address both repeated measurements (and multiple patients). Cubic regression splines can be used to fit a non-linear profile to the time courses of tumor volume at each dose level. These non-linear profiles can then be related to dose within the mixed model. Tumor growth inhibition as a percent of vehicle can be calculated as a percent area under the fitted curve (AUC) per day in relation to the vehicle, using the following formula:
[formula] Using this formula, a TGI value of 100% indicates tumor stasis, greater than about 1% but less than about 100% indicates tumor growth inhibition, and greater than about 100% indicates tumor regression. Preparation of a Compound of Formula I
The efficacy of representative combinations of the invention were measured in vivo by implanting allografts or xenografts of cancer cells in rodents and treating the tumor-bearing animals with the combinations. Variable results are to be expected depending on the cell line, the presence or absence of certain mutations in the tumor cells, the sequence of administration the compounds, dosing regimen, and other factors. Subject mice were treated with drug(s) or control (Vehicle) and monitored over several weeks or more to measure the time to tumor doubling, log cell kill, and tumor inhibition.

[2] = system: MALME3M cells; assay: Cell viability assay (CellTiter-Glo), MALME3M; type: cell-based, human; settings: MALME3M B-RAF V600E metastatic melanoma cell line
Method: (§1) Cells were plated in black, clear-bottomed 384-well plates (Catalog 353962; Becton Dickinson; Franklin Lakes, N.J.) at a density of 1500 cells/well and incubated overnight to 1.5 days at 37° C., 5% CO2. Serial dilutions of GDC-0068, GDC-0973, or both in combination were then added to the cells and incubated for another 96 hours. Cell viability was determined by measuring the cellular adenosine triphosphate (ATP) levels as described in the manufacturer's protocol (CellTiter-Glo Luminescent Cell Viability Assay kit; Catalog G7573; Promega, Madison, Wis.). Luminescence signal was recorded on an EnVision 2101 Multilabel Reader (PerkinElmer; Waltham, Mass.).
(§2) Percentage inhibition was calculated by dividing the relative light unit (RLU) of cells exposed to the GDC-0068 and GCD-0973 combination to the RLU of cells exposed to DMSO and subtracting it from 1, as expressed below: % inhibition=1−(RLUcombination/RLUDMSO)
(§3) BLISS analysis compared the expected % inhibition (E=EGDC-0068+EGDC-0973−EGDC-0068×EGDC-0973) with the experimentally observed % inhibition, EOBS. The BLISS score is the difference (ΔE=EOBS−E) between the expected % inhibition, E, and the experimentally observed inhibition, EOBS.

[3] = system: MALME3 cells; assay: Cell viability assay (CellTiter-Glo), MALME3; type: cell-based, human; settings: MALME3 normal skin fibroblasts
Method: as §1, §2, §3

| SMILES | single agent tumor growth inhibition (TGI) ([1]; 50 mg/kg of GDC-0068) | single agent tumor growth inhibition (TGI) ([1]; higher doses of GDC-0068 (75 and 100 mg/kg)) | single agent effect on cell viability [2] | single agent effect on cell viability [3] | single agent tumor growth inhibition (TGI) ([1]; all doses of GDC-0973) |
| --- | --- | --- | --- | --- | --- |
| CC(C)NC[C@@H](C(=O)N1CCN(c2ncnc3c2[C@H](C)C[C@H]3O)CC1)c1ccc(Cl)cc1 [GDC-0068, (S)-2-(4-chlorophenyl)-1-(4-((5R,7R)-7-hydroxy-5-methyl-6,7-dihydro-5H-cyclopenta[d]pyrimidin-4-yl)piperazin-1-yl)-3-(isopropylamino)propan-1-one] | No TGI | Comparable single agent tumor growth inhibition (TGI) | lack of single agent activity | – | – |
| O=C(c1ccc(F)c(F)c1Nc1ccc(I)cc1F)N1CC(O)([C@@H]2CCCCN2)C1 [GDC-0973, (S)-(3,4-difluoro-2-(2-fluoro-4-iodophenylamino)phenyl)(3-hydroxy-3-(piperidin-2-yl)azetidin-1-yl)methanone] | – | – | sensitivity | resistant | Comparable single agent tumor growth inhibition (TGI) |
